Molecules are shown by their SMILES. Values after ≈ are worked out from the molar mass of the structure shown. Active and inactive are the calls of the source.

Eight molecules from ChEMBL document CHEMBL1212736, “Prevalence and clonal characterization of Streptococcus pyogenes clinical isolates with reduced fluoroquinolone susceptibility in Spain” (2010) can be followed below.

Experiment [1] deals with Streptococcus pyogenes. In words: Antimicrobial activity against strong ciprofloxacin-resistant Streptococcus pyogenes by agar dilution method. In kind it is functional.
For experiment [2], the system named is Streptococcus pyogenes. Description: Antimicrobial activity against ciprofloxacin-susceptible Streptococcus pyogenes harboring Asp91/Asn mutation in parC gene by agar dilution method. The format is functional. A general note: In agar dilution the substance is mixed into plates at graded concentrations.
For experiment [3], the system named is Streptococcus pyogenes. In words: Antimicrobial activity against strong ciprofloxacin-resistant Streptococcus pyogenes assessed as 1 fold decrease in compound MIC by agar dilution method. The format is functional, organism-based.
The subject of experiment [4] is Streptococcus pyogenes. Description: Antimicrobial activity against mild ciprofloxacin-resistant Streptococcus pyogenes assessed as 1 fold decrease in compound MIC by agar dilution method. In kind it is functional, organism-based.
For experiment [5], the system named is Streptococcus pyogenes. In words: Antimicrobial activity against strong ciprofloxacin-resistant Streptococcus pyogenes at 10 ug by disk diffusion assay. The format is functional. The settings on record: read-out: IZ. For orientation: In agar diffusion tests the substance spreads into inoculated agar from a disc or well.
The test system of experiment [6] is Streptococcus pyogenes. In words: Antimicrobial activity against ciprofloxacin-susceptible Streptococcus pyogenes harboring Asp91/Asn mutation in parC gene assessed as 1 fold decrease in compound MIC by agar dilution method. In kind it is functional, organism-based.
The subject of experiment [7] is Streptococcus pyogenes. In words: Antimicrobial activity against mild ciprofloxacin-resistant Streptococcus pyogenes by agar dilution method. In kind it is functional.
For experiment [8], the system named is Streptococcus pyogenes. Description: Antimicrobial activity against macrolide-resistant Streptococcus pyogenes emm77/ST399/T28 expressing tetM gene by agar dilution method. In kind it is functional.

Consider `O=C(O)c1cn(C2CC2)c2cc(N3CCNCC3)c(F)cc2c1=O` [CIPROFLOXACIN], for which, in experiment [1], the lowest concentration to inhibit growth (MIC) was 32 µg/mL (≈ 96.6 µM). Besides, the MIC50 (as a rule, the lowest concentration that inhibits either 50% of growth or 50% of the strains tested, depending on the study) in experiment [2] was less than 0.5 µg/mL. Further, the MIC90 (usually an inhibitory concentration at the 90% level, which refers to growth in some studies and to a panel of isolates in others) in experiment [2] came to 1 µg/mL (≈ 3.02 µM). The result in experiment [3], in experiment [4] and in experiment [6] was Active. Besides, in experiment [5], the zone of inhibition at 10 µg/disc turned out to be 0 mm.
Turning to `CO/N=C1\CN(c2nc3c(cc2F)c(=O)c(C(=O)O)cn3C2CC2)CC1CN` (configuration not stated) [GEMIFLOXACIN], the MIC (usually the smallest concentration in the dilution series that meets the test's criterion for growth inhibition) in experiment [1] worked out at 1 µg/mL (≈ 2.57 µM). Besides, in experiment [7], the MIC50 is not above 0.25 µg/mL and the MIC90 is not above 0.25 µg/mL. In experiment [2], this molecule yielded an MIC50 not above 0.25 µg/mL and an MIC90 not above 0.25 µg/mL. Moreover, the zone of inhibition at 10 µg/disc in experiment [5] came out at 0 mm.
For `Cc1c(F)c(N2CCNC(C)C2)cc2c1c(=O)c(C(=O)O)cn2C1CC1` (configuration not stated) [GREPAFLOXACIN], in experiment [1], the minimal inhibitory concentration (MIC) came out at 16 µg/mL (≈ 44.5 µM). Also, the MIC50 in experiment [7] was 2 µg/mL (≈ 5.56 µM); in experiment [2] it was not above 0.5 µg/mL. For the same molecule, the MIC90 turned out to be 2 µg/mL (≈ 5.56 µM) in experiment [7] and 1 µg/mL (≈ 2.78 µM) in experiment [2]. In addition, the zone of inhibition at 10 µg/disc in experiment [5] came to 0 mm.
Consider `C[C@H]1COc2c(N3CCN(C)CC3)c(F)cc3c(=O)c(C(=O)O)cn1c23.C[C@H]1COc2c(N3CCN(C)CC3)c(F)cc3c(=O)c(C(=O)O)cn1c23.O` [LEVOFLOXACIN], for which it took 32 µg/mL to inhibit growth in experiment [1] (MIC). Besides, in experiment [7], the MIC50 came out at 2 µg/mL and the MIC90 turned out to be 2 µg/mL. Also, in experiment [2], the MIC50 was not above 0.5 µg/mL and the MIC90 turned out to be 1 µg/mL. Besides, the zone of inhibition at 10 µg/disc in experiment [5] was 0 mm.
`COc1c(N2C[C@@H]3CCCN[C@@H]3C2)c(F)cc2c(=O)c(C(=O)O)cn(C3CC3)c12` [MOXIFLOXACIN]: it took 4 µg/mL (≈ 9.96 µM) to inhibit growth in experiment [1] (MIC). In experiment [7], this molecule returned an MIC50 of 0.5 µg/mL (≈ 1.25 µM) and an MIC90 of 0.5 µg/mL (≈ 1.25 µM). Besides, in experiment [2], the MIC50 was not above 0.25 µg/mL and the MIC90 is not above 0.25 µg/mL. Moreover, the zone of inhibition at 10 µg/disc in experiment [5] was determined as 0 mm.
On to `CCn1cc(C(=O)O)c(=O)c2cc(F)c(N3CCNCC3)cc21` [NORFLOXACIN], for which inhibition of growth in experiment [1] (MIC) required 64 µg/mL (≈ 200 µM). In addition, the values for the MIC50 in experiment [7] and in experiment [2] were 32 µg/mL (≈ 100 µM) and 4 µg/mL (≈ 12.5 µM), respectively. In addition, the MIC90 was more than 32 µg/mL in experiment [7] and 8 µg/mL (≈ 25.1 µM) in experiment [2]. The outcome in experiment [3], in experiment [4] and in experiment [6] was Active. Also, the zone of inhibition at 10 µg/disc in experiment [5] was determined as 0 mm.
For the molecule `CC1COc2c(N3CCN(C)CC3)c(F)cc3c(=O)c(C(=O)O)cn1c23` (configuration not stated) [OFLOXACIN], the MIC in experiment [1] was found to be 64 µg/mL (≈ 177 µM). Moreover, in experiment [7], the MIC50 amounted to 4 µg/mL (≈ 11.1 µM) and the MIC90 was 8 µg/mL (≈ 22.1 µM). In experiment [2], this molecule returned an MIC50 of 1 µg/mL (≈ 2.77 µM) and an MIC90 of 2 µg/mL (≈ 5.53 µM). Besides, the zone of inhibition at 10 µg/disc in experiment [5] came out at 0 mm.
As to `CN(C)[C@@H]1C(O)=C(C(N)=O)C(=O)[C@@]2(O)C(O)=C3C(=O)c4c(O)cccc4[C@@](C)(O)[C@H]3C[C@@H]12` [TETRACYCLINE], the MIC in experiment [8] worked out at 8 µg/mL (≈ 18 µM).
